Experimental data: PubChem BioAssay (NCI)
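Here, GI50 denotes the concentration required for 50% inhibition of growth. TGI: concentration producing complete growth inhibition.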

Tests used:
Test in all cases: NCI anticancer screen, dose series, 384-well format
[1] = system: A498 renal
[2] = system: A549 NSCLC
[3] = system: ACHN renal
[4] = system: BT-549 breast
[5] = system: CAKI-1 renal
[6] = system: COLO 205 colon
[7] = system: DU-145 prostate
[8] = system: EKVX NSCLC
[9] = system: HCC-2998 colon
[10] = system: HCT-116 colon
[11] = system: HCT-15 colon
[12] = system: HL-60(TB) leukemia
[13] = system: HOP-62 NSCLC
[14] = system: HOP-92 NSCLC
[15] = system: HS 578T breast
[16] = system: HT29 colon
[17] = system: IGROV1 ovarian
[18] = system: KM12 colon
[19] = system: LOX IMVI melanoma
[20] = system: M14 melanoma
[21] = system: MALME-3M melanoma
[22] = system: MCF7 breast
[23] = system: MDA-MB-231 breast
[24] = system: MDA-MB-435 melanoma
[25] = system: MDA-MB-468 breast
[26] = system: MOLT-4 leukemia
[27] = system: NCI-H226 lung
[28] = system: NCI-H23 lung
[29] = system: NCI-H322M lung
[30] = system: NCI-H460 NSCLC
[31] = system: NCI-H522 lung
[32] = system: NCI/ADR-RES ovarian
[33] = system: OVCAR-3 ovarian
[34] = system: OVCAR-4 ovarian
[35] = system: OVCAR-5 ovarian
[36] = system: OVCAR-8 ovarian
[37] = system: PC-3 prostate
[38] = system: RPMI-8226 leukemia
[39] = system: RXF 393 renal
[40] = system: SF-268 CNS
[41] = system: SF-295 CNS
[42] = system: SF-539 CNS
[43] = system: SK-MEL-28 melanoma
[44] = system: SK-MEL-5 melanoma
[45] = system: SK-OV-3 ovarian
[46] = system: SN12C renal
[47] = system: SNB-19 CNS
[48] = system: SNB-75 CNS
[49] = system: SR leukemia
[50] = system: T-47D breast
[51] = system: TK-10 renal
[52] = system: U251 glioblastoma
[53] = system: UACC-257 melanoma
[54] = system: UACC-62 melanoma

**Q.** With O=C1Nc2ccc(CN3CCOC3=O)cc2/C1=C/c1cc(CN2CCOCC2)c[nH]1 as the compound, how does the GI50 [1] read?
**A.** > 100 µM

**Q.** And the TGI [1]?
**A.** > 100 µM

**Q.** What about the GI50 [2] of the same compound?
**A.** 49.7 µM

**Q.** And the TGI [2]?
**A.** > 100 µM

**Q.** And the GI50 [3]?
**A.** 77.9 µM

**Q.** What about the TGI [3] of the same compound?
**A.** > 100 µM

**Q.** And the GI50 [4]?
**A.** 24.5 µM

**Q.** What about the TGI [4] of the same compound?
**A.** 58.9 µM

**Q.** And the GI50 [5]?
**A.** 58.5 µM

**Q.** What about the TGI [5] of the same compound?
**A.** > 100 µM

**Q.** What about the GI50 [6] of the same compound?
**A.** 49.2 µM

**Q.** What about the TGI [6] of the same compound?
**A.** > 100 µM

**Q.** And the GI50 [7]?
**A.** 45.9 µM

**Q.** And the TGI [7]?
**A.** > 100 µM

**Q.** What about the GI50 [8] of the same compound?
**A.** 38.2 µM

**Q.** What about the TGI [8] of the same compound?
**A.** > 100 µM

**Q.** What about the GI50 [9] of the same compound?
**A.** 30.1 µM

**Q.** What about the TGI [9] of the same compound?
**A.** 68.1 µM

**Q.** And the GI50 [10]?
**A.** 41.2 µM

**Q.** And the TGI [10]?
**A.** > 100 µM

**Q.** And the GI50 [11]?
**A.** 27.9 µM

**Q.** What about the TGI [11] of the same compound?
**A.** 93.1 µM

**Q.** What about the GI50 [12] of the same compound?
**A.** 16.3 µM

**Q.** And the TGI [12]?
**A.** 30 µM

**Q.** And the GI50 [13]?
**A.** 31.6 µM

**Q.** What about the TGI [13] of the same compound?
**A.** 75.9 µM

**Q.** And the GI50 [14]?
**A.** > 100 µM

**Q.** What about the TGI [14] of the same compound?
**A.** > 100 µM

**Q.** What about the GI50 [15] of the same compound?
**A.** 64.6 µM

**Q.** What about the TGI [15] of the same compound?
**A.** > 100 µM

**Q.** What about the GI50 [16] of the same compound?
**A.** 30.4 µM

**Q.** And the TGI [16]?
**A.** > 100 µM

**Q.** And the GI50 [17]?
**A.** 43.4 µM

**Q.** And the TGI [17]?
**A.** > 100 µM

**Q.** And the GI50 [18]?
**A.** 5.29 µM

**Q.** What about the TGI [18] of the same compound?
**A.** > 100 µM

**Q.** And the GI50 [19]?
**A.** 28.7 µM

**Q.** And the TGI [19]?
**A.** 68.3 µM

**Q.** And the GI50 [20]?
**A.** 49 µM

**Q.** And the TGI [20]?
**A.** > 100 µM

**Q.** And the GI50 [21]?
**A.** > 100 µM

**Q.** And the TGI [21]?
**A.** > 100 µM

**Q.** And the GI50 [22]?
**A.** 33.1 µM

**Q.** And the TGI [22]?
**A.** > 100 µM

**Q.** What about the GI50 [23] of the same compound?
**A.** 58.8 µM

**Q.** And the TGI [23]?
**A.** > 100 µM

**Q.** What about the GI50 [24] of the same compound?
**A.** 25.5 µM

**Q.** What about the TGI [24] of the same compound?
**A.** 76.7 µM

**Q.** And the GI50 [25]?
**A.** 23 µM

**Q.** What about the TGI [25] of the same compound?
**A.** 85.1 µM

**Q.** And the GI50 [26]?
**A.** 20.5 µM

**Q.** And the TGI [26]?
**A.** 36.5 µM

**Q.** And the GI50 [27]?
**A.** 33.3 µM

**Q.** And the TGI [27]?
**A.** 83 µM

**Q.** And the GI50 [28]?
**A.** 25.2 µM

**Q.** And the TGI [28]?
**A.** > 100 µM

**Q.** And the GI50 [29]?
**A.** 43.7 µM

**Q.** And the TGI [29]?
**A.** > 100 µM

**Q.** And the GI50 [30]?
**A.** 19.6 µM

**Q.** And the TGI [30]?
**A.** 40 µM

**Q.** What about the GI50 [31] of the same compound?
**A.** 21.6 µM

**Q.** And the TGI [31]?
**A.** 55.2 µM

**Q.** And the GI50 [32]?
**A.** 30 µM

**Q.** And the TGI [32]?
**A.** 83.9 µM

**Q.** And the GI50 [33]?
**A.** 40.3 µM

**Q.** And the TGI [33]?
**A.** > 100 µM

**Q.** And the GI50 [34]?
**A.** 33.5 µM

**Q.** And the TGI [34]?
**A.** 93.3 µM

**Q.** And the GI50 [35]?
**A.** > 100 µM

**Q.** What about the TGI [35] of the same compound?
**A.** > 100 µM

**Q.** And the GI50 [36]?
**A.** 37.8 µM

**Q.** And the TGI [36]?
**A.** > 100 µM

**Q.** And the GI50 [37]?
**A.** 35.3 µM

**Q.** And the TGI [37]?
**A.** 98.1 µM

**Q.** What about the GI50 [38] of the same compound?
**A.** 18.2 µM

**Q.** What about the TGI [38] of the same compound?
**A.** 39.8 µM

**Q.** What about the GI50 [39] of the same compound?
**A.** 96.3 µM

**Q.** And the TGI [39]?
**A.** > 100 µM

**Q.** What about the GI50 [40] of the same compound?
**A.** 49.9 µM

**Q.** What about the TGI [40] of the same compound?
**A.** > 100 µM

**Q.** And the GI50 [41]?
**A.** 33.8 µM

**Q.** And the TGI [41]?
**A.** > 100 µM

**Q.** And the GI50 [42]?
**A.** 53.8 µM

**Q.** And the TGI [42]?
**A.** > 100 µM

**Q.** And the GI50 [43]?
**A.** 71.8 µM

**Q.** What about the TGI [43] of the same compound?
**A.** > 100 µM

**Q.** And the GI50 [44]?
**A.** 15.7 µM

**Q.** What about the TGI [44] of the same compound?
**A.** 30.8 µM

**Q.** What about the GI50 [45] of the same compound?
**A.** 43.5 µM

**Q.** And the TGI [45]?
**A.** > 100 µM

**Q.** And the GI50 [46]?
**A.** 27.1 µM

**Q.** And the TGI [46]?
**A.** > 100 µM

**Q.** And the GI50 [47]?
**A.** 63.3 µM

**Q.** What about the TGI [47] of the same compound?
**A.** > 100 µM

**Q.** And the GI50 [48]?
**A.** 86 µM

**Q.** What about the TGI [48] of the same compound?
**A.** > 100 µM

**Q.** What about the GI50 [49] of the same compound?
**A.** 14 µM

**Q.** And the TGI [49]?
**A.** 30.6 µM

**Q.** And the GI50 [50]?
**A.** 17.5 µM

**Q.** What about the TGI [50] of the same compound?
**A.** 44 µM

**Q.** What about the GI50 [51] of the same compound?
**A.** 43.3 µM

**Q.** And the TGI [51]?
**A.** > 100 µM

**Q.** What about the GI50 [52] of the same compound?
**A.** 42.2 µM

**Q.** And the TGI [52]?
**A.** > 100 µM

**Q.** What about the GI50 [53] of the same compound?
**A.** 35.6 µM

**Q.** And the TGI [53]?
**A.** > 100 µM

**Q.** And the GI50 [54]?
**A.** 45.1 µM

**Q.** What about the TGI [54] of the same compound?
**A.** > 100 µM
